The structures appear in SMILES notation. pEC50, pKi: −log10 of the molar value.

FKBP12, sequence (P62942 whole entry, species assumed): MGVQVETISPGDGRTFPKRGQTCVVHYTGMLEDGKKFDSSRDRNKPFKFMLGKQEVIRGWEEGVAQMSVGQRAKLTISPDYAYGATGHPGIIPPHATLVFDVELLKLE

One experiment has as its system chick dorsal root ganglia. The experiment is described as follows: Chick dorsal root ganglion cultures and neurite outgrowth. The class given is cell-based. Conditions: Gallus gallus, 48 h; read-out: ED50 (the source's name). As for the experimental part: Dorsal root ganglia were dissected from chick embryos of ten day gestation. Whole ganglion explants were cultured on thin layer Matrigel-coated 12 well plates with Liebovitz L15 plus high glucose media supplemented with 2 mM glutamine and 10% fetal calf serum, and also containing 10 μM cytosine β-D arabinofuranoside (Ara C) at 37° C. in an environment containing 5% CO2. Twenty-four hours later, the DRGs were treated with various immunophilin ligands. Forty-eight hours after drug treatment, the ganglia were visualized under phase contrast or Hoffman Modulation contrast with a Zeiss Axiovert inverted microscope. Photomicrographs of the explants were made, and neurite outgrowth was quantitated. Neurites longer than the DRG diameter were counted as positive, with total number of neurites quantitated per each experimental condition. Three to four DRGs are cultured per well, and each treatment was performed in duplicate.
The data for these experiments for representative compounds are presented in the “ED50” column of Table I.
With `O=C(OCCCCc1ccccc1)C1CCCCN1S(=O)(=O)Cc1ccccc1` (stereo not drawn) [Compound 2, 4-Phenyl-1-butyl 1-(α-tolylsulfonyl)-2-pipecolinate], the pEC50 is 10.51.
For `O=C(OC(CCc1ccccc1)CCc1ccccc1)C1CCCCN1S(=O)(=O)Cc1ccccc1` (stereo not drawn) [Compound 3, 1,5-Diphenyl-3-pentyl N-(α-toluenesulfonyl)-pipecolate], the pEC50 was 9.88.
On the same count and under the same terms, with `O=C(OCCCc1cccnc1)[C@@H]1CCCN1S(=O)(=O)Cc1ccccc1` [Compound 1, 3-(3-Pyridyl)-1-propyl(2S)-N-(α-toluenesulfonyl)pyrrolidine-2-carboxylate] the figure was 11.70.

In the next experiment the test system is TH-positive dopaminergic neurons in the striatum. The experiment in a line: MPTP model of Parkinson's Disease, TH immunostaining of striatum. The class given is in vivo. The conditions noted are these: MPTP-lesioned CD1 mice (30 mg/kg i.p. for 5 days), compound 4 mg/kg s.c. for 10 days, striatum at 18 days. As for the experimental part:
MPTP lesioning of dopaminergic neurons in mice was used as an animal model of Parkinson's Disease. Four week old male CD1 white mice were dosed i.p. with 30 mg/kg of MPTP for 5 days. Test compounds (4 mg/kg), or vehicle, were administered s.c. along with the MPTP for 5 days, as well as for an additional 5 days following cessation of MPTP treatment. At 18 days following MPTP treatment, the animals were sacrificed and the striata were dissected and perfusion-fixed. Immunostaining was performed on saggital and coronal brain sections using anti-tyrosine hydroxylase […] to quantitate survival and recovery of dopaminergic neurons. In animals treated with MPTP and vehicle, a substantial loss of functional dopaminergic terminals was observed as compared to non-lesioned animals.
In the case of `O=C(OCCCCc1ccccc1)C1CCCCN1S(=O)(=O)Cc1ccccc1` (stereo not drawn) [Compound 2, 4-Phenyl-1-butyl 1-(α-tolylsulfonyl)-2-pipecolinate], the “% Rescue, TH Immunostaining at 4 mg/kg, s.c.” value (“% Rescue, TH Immunostaining” below) was determined as 38.00%.
With `O=C(OCCCCc1ccccc1)C1CCCCN1S(=O)(=O)c1ccccc1` (stereo not drawn) [4-phenyl-1-butyl-N-(benzenesulfonyl) pipecolate], the “% Rescue, TH Immunostaining” value was 29.22%.
Take `O=C(OCCCc1cccnc1)[C@@H]1CCCN1S(=O)(=O)Cc1ccccc1` [Compound 1, 3-(3-Pyridyl)-1-propyl(2S)-N-(α-toluenesulfonyl)pyrrolidine-2-carboxylate]: the “% Rescue, TH Immunostaining” value was 44.31%.

A further experiment has as its target FKBP12 (Homo sapiens, UniProt P62942). The experiment is described as follows: Ki test procedure: inhibition of peptidyl-prolyl isomerase (rotamase) activity, chymotrypsin-coupled assay. The conditions noted are these: apparent Ki, rotamase activity of FKBP, substrate N-succinyl-Ala-Ala-Pro-Phe-p-nitroanilide. The class given is biochemical. From the text: The inhibition of the prolyl peptidyl cis-trans isomerase activity of FKBP may be measured as an indicator of this affinity.
Inhibition of the peptidyl-prolyl isomerase (rotamase) activity of the inventive compounds can be evaluated by known methods described in the literature (Harding, et al., Nature, 1989, 341:758-760; Holt et al. J. Am. Chem. Soc., 115:9923-9938). These values are obtained as apparent Ki's and are presented in Table I. The cis-trans isomerization of an alanine-proline bond in a model substrate, N-succinyl-Ala-Ala-Pro-Phe-p-nitroanilide, is monitored spectrophotometrically in a chymotrypsin-coupled assay, which releases para-nitroanilide from the trans form of the substrate. The inhibition of this reaction caused by the addition of different concentrations of inhibitor is determined, and the data is analyzed as a change in first-order rate constant as a function of inhibitor concentration to yield the apparent Ki values.
In a plastic cuvette are added […] of ice cold assay buffer (25 mM HEPES, pH 7.8, 100 mM NaCl), […] of FKBP (2.5 mM in 10 mM Tris-Cl pH 7.5, 100 mM NaCl, 1 mM dithiothreitol), […] of chymotrypsin (50 mg/ml in 1 mM HCl) and […] of test compound at various concentrations in dimethyl sulfoxide. The reaction is initiated by the addition of 5 mL of substrate (succinyl-Ala-Phe-Pro-Phe-para-nitroanilide, 5 mg/mL in 2.35 mM LiCl in trifluoroethanol).
The absorbance at 390 nm versus time is monitored for 90 seconds using a spectrophotometer and the rate constants are determined from the absorbance versus time data files.
As for `O=C(OCCCCc1ccccc1)C1CCCCN1S(=O)(=O)Cc1ccccc1` (stereo not drawn) [Compound 2, 4-Phenyl-1-butyl 1-(α-tolylsulfonyl)-2-pipecolinate], the pKi was 7.47.
With `O=C(OC(CCc1ccccc1)CCc1ccccc1)C1CCCCN1S(=O)(=O)Cc1ccccc1` (stereo not drawn) [Compound 3, 1,5-Diphenyl-3-pentyl N-(α-toluenesulfonyl)-pipecolate], the pKi is 6.97.
As to `O=C(OCCCc1cccnc1)[C@@H]1CCCN1S(=O)(=O)Cc1ccccc1` [Compound 1, 3-(3-Pyridyl)-1-propyl(2S)-N-(α-toluenesulfonyl)pyrrolidine-2-carboxylate], the pKi was 7.14.

Source of the values: US20030114492A1, “Method of using neurotrophic sulfonamide compounds” (priority 1997, published 2003).
